{"source": "ChEMBL document CHEMBL1201862", "about": "“PubChem BioAssay data set” (2004)", "key": {"[1]": {"target": "Cytochrome P450 3A4 (Homo sapiens, UniProt P08684)", "sequence (P08684 whole entry)": "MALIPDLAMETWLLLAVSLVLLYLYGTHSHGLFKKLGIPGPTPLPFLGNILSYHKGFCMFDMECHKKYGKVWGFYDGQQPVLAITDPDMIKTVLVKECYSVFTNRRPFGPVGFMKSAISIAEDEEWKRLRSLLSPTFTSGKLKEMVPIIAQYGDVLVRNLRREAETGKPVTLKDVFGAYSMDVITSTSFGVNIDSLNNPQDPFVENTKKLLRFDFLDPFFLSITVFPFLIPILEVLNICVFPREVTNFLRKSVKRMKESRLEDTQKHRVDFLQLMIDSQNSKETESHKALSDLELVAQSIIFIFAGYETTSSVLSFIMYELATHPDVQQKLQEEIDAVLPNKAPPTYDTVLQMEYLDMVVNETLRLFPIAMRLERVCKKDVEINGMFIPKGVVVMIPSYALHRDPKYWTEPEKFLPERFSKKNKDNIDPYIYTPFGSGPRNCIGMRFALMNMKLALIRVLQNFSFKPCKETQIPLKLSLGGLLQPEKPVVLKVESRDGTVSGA", "conditions": "Potency"}, "[2]": {"tested_on": "HEK293", "test": "inhibition of NOD1-driven NF-kB reporter – cell-based, luminescence, uHTS, primary screen (AID 1578)", "assay_type": "functional", "conditions": "Homo sapiens"}, "[3]": {"test": "viability of PTEN-deleted HCT116 cells – cell-based, HCT116 PTEN knockout, dose response (AID 1047);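 also: HCT116 colon tumor cells with PTEN knocked out; cells exposed to compound for 60 hours before readout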", "assay_type": "functional"}, "[4]": {"tested_on": "HEK293", "test": "cells", "assay_type": "functional, cell-based", "conditions": "Homo sapiens"}, "[5]": {"test": "viability of HCT116 lacking mutant beta-catenin – cell-based, human colon tumor, dose response (AID 1045);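 also: HCT116 colon tumor cells with beta catenin knocked out; cells exposed to compound for 60 hours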", "assay_type": "functional"}, "[6]": {"tested_on": "HEK293", "test": "NOD2 signaling inhibitors in MDP-stimulated cells, cell-based, uHTS, luminescence (AID 2001)", "assay_type": "functional", "conditions": "Homo sapiens"}, "[7]": {"tested_on": "HEK293", "test": "cells", "assay_type": "functional, cell-based", "conditions": "Homo sapiens", "remark": "listed apart in the source"}, "[8]": {"tested_on": "Vero", "test": "cells", "assay_type": "functional", "conditions": "Chlorocebus sabaeus"}, "[9]": {"test": "loss of viability in HepG2 cells – cell-based, CellTiter-Glo, cherry-picked, cytotoxicity control for Shn3 inhibitor project, dose response (AID 624134)", "assay_type": "functional"}, "[10]": {"test": "reduction of Shn3 3'UTR-driven luciferase in osteoblasts – cell-based, Clone20 osteoblasts, firefly luciferase, cherry-picked, dose response (AID 624132)", "assay_type": "functional"}, "[11]": {"test": "non-specific 3'UTR reporter inhibition in Clone20-Shn3RL – cell-based, Renilla luciferase, cherry-picked, counter-screen for Shn3 inhibitor project, dose response (AID 624133)", "assay_type": "functional"}, "[12]": {"target": "T1, Microphthalmia-associated transcription factor (Homo sapiens, UniProt O75030)", "T1 sequence (O75030 whole entry)": "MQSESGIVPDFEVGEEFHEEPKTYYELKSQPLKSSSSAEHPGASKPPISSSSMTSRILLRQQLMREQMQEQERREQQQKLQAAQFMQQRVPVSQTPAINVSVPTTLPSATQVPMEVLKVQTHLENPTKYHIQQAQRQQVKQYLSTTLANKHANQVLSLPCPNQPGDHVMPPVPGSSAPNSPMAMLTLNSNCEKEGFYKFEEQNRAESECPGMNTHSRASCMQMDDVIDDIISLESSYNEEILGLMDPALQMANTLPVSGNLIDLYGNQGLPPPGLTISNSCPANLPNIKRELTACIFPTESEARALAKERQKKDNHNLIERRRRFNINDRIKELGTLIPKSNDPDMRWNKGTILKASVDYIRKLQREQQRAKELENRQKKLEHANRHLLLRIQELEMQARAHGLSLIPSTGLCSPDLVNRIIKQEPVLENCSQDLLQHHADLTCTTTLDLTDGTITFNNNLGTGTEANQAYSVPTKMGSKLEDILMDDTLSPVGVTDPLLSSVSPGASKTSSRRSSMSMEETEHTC", "test": "reducers of TRPM1 reporter luminescence, concentration series – cell-based, SK-MEL-5, cherry-picked, set 3, MITF inhibitor project, dose response (AID 493073)", "assay_type": "functional"}, "[13]": {"target": "Eukaryotic translation initiation factor 4E (Mus musculus, UniProt P63073)", "sequence (P63073 whole entry)": "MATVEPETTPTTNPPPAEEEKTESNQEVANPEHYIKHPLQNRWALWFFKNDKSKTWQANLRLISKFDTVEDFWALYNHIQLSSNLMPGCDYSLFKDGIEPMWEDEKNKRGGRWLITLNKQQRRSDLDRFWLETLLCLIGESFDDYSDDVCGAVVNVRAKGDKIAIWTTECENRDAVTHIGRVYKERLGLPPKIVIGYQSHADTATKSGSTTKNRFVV", "test": "blockers of eIF4G binding by eIF4E – biochemical, TR-FRET, dose response (AID 855);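 also: potency for disrupting eIF4E binding to eIF4GI seen as loss of FRET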", "assay_type": "functional"}, "[14]": {"target": "Luciferin 4-monooxygenase (Photinus pyralis, UniProt P08659)", "sequence (P08659 whole entry)": "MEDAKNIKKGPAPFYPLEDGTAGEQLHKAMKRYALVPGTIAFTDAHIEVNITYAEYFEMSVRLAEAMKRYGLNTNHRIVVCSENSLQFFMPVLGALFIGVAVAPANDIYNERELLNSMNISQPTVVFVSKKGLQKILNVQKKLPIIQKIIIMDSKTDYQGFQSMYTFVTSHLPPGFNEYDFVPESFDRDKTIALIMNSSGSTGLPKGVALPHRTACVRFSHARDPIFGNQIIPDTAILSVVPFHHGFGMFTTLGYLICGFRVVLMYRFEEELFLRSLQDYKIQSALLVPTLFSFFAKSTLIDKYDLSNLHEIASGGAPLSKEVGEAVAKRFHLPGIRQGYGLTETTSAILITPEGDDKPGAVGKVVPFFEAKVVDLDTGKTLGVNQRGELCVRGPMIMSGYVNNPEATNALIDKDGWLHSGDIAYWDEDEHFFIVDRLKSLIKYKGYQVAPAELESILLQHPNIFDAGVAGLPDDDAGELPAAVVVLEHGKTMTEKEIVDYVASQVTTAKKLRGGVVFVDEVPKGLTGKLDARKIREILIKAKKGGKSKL", "test": "inhibition of purified Photinus pyralis luciferase – biochemical, luminescence, dose response (AID 1891)"}, "[15]": {"test": "Luminescence Cell-Based Dose Confirmation HTS to Identify Inhibitors of Platelet Dense Granule Release. [Related pubchem assays: 1663 (Primary HTS), 1678 (Summary of Project)]", "assay_type": "functional"}, "[16]": {"test": "blockers of HIV-1 envelope-mediated cell-cell fusion – cherry-pick, dose response (AID 652057)", "assay_type": "functional, cell-based"}, "[17]": {"test": "HIV-1 AD8 envelope cell-cell fusion blockers – cherry-pick, dose response (AID 652062);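 also: luciferase signal from cell-cell fusion driven by HIV-1 clade B AD8 Env; potency is for inhibitors of fusion seen as a drop in luminescence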", "assay_type": "functional, cell-based"}, "[18]": {"target": "Heat shock protein HSP 90-alpha (Homo sapiens, UniProt P07900)", "assay_type": "functional, organism-based"}, "[19]": {"target": "T2, Sentrin-specific protease 8 (Homo sapiens, UniProt Q96LD8)", "T2 sequence (Q96LD8 whole entry)": "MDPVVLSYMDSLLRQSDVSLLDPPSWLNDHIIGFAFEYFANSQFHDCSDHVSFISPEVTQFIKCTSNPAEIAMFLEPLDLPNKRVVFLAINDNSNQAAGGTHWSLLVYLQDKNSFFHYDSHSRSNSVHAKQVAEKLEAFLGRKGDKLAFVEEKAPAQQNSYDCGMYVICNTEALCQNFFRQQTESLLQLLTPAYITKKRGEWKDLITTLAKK", "assay_type": "functional"}, "[20]": {"target": "T2, Sentrin-specific protease 8", "assay_type": "functional", "remark": "listed apart in the source"}, "[21]": {"target": "T3, Long-chain-fatty-acid--AMP ligase FadD28 (Mycobacterium tuberculosis, UniProt P9WQ59)", "T3 sequence (P9WQ59 whole entry)": "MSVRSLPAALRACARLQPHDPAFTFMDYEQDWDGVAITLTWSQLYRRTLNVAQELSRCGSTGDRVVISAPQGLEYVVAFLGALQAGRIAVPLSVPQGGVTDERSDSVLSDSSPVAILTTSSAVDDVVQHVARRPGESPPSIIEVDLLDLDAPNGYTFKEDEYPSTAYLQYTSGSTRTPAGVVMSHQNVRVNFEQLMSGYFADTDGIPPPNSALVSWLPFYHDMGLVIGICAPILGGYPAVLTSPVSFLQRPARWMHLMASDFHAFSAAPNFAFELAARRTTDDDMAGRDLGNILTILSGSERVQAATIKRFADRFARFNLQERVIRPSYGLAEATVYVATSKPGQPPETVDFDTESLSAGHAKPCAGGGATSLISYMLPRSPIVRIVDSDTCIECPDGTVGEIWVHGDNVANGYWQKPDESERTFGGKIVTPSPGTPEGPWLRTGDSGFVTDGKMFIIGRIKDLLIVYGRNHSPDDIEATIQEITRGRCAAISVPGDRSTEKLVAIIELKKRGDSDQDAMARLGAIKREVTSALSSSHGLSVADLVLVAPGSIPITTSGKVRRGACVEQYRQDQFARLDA", "test": "Fluorescence polarization aasay to screen for inhibitors that compete for the binding of FadD28 to a bisubstrate Measured in Biochemical System Using Plate Reader - 2147-01_Inhibitor_Dose_CherryPick_Activity.", "assay_type": "functional, Mycobacterium tuberculosis H37Rv"}}, "note": "The source made the active and inactive calls."}
{"smiles": "CCCn1c(-c2ccc(F)cc2)nc2c(NC3CC4CCC(C3)N4C)nc(C)nc21", "note": "(configuration not stated)", "values": [{"measurement": "AC50", "setting": "[1]", "result": "15.8 µM (inconclusive)"}]}
{"smiles": "CCOc1cc(C=C(C(=O)OC)C(=O)OC)ccc1OCc1ccc([N+](=O)[O-])cc1", "values": [{"measurement": "EC50", "setting": "[2]", "result": "11.9 µM (active)"}, {"measurement": "EC50", "setting": "[3]", "result": "18 µM (active)"}, {"measurement": "IC50", "setting": "[4]", "result": "> 20 µM (inactive)"}, {"measurement": "EC50", "setting": "[5]", "result": "16.9 µM (active)"}, {"measurement": "IC50", "setting": "[6]", "result": "5.8 µM (active)"}, {"measurement": "IC50", "setting": "[7]", "result": "3.72 µM (active)"}]}
{"smiles": "N#Cc1c(NCCN)nc(-c2ccccc2)c2c1CCCC2", "values": [{"measurement": "CC50", "setting": "[8]", "result": "16.4 µM (active)"}]}
{"smiles": "Cc1nc(N2CCOCC2)c2nc(-c3ccccc3)n(CCN3CCOCC3)c2n1", "values": [{"measurement": "AC50", "setting": "[1]", "result": "10 µM (inconclusive)"}]}
{"smiles": "Nc1nc(N)c2cc(S(=O)(=O)c3cccc(C(F)(F)F)c3)ccc2n1", "values": [{"measurement": "AC50", "setting": "[9]", "result": "5.52 µM (active)"}, {"measurement": "AC50", "setting": "[10]", "result": "5.22 µM (active)"}, {"measurement": "AC50", "setting": "[11]", "result": "16.9 µM (active)"}]}
{"smiles": "COc1cc2ccnc(Cc3cccc(OC)c3OC)c2cc1OC", "values": [{"measurement": "AC50", "setting": "[9]", "result": "40.7 µM (active)"}, {"measurement": "AC50", "setting": "[10]", "result": "4.64 µM (active)"}, {"measurement": "AC50", "setting": "[11]", "result": "5.35 µM (active)"}]}
{"smiles": "CC(C)N1C/C(=C/c2cccnc2)C(=O)/C(=C/c2cccnc2)C1", "values": [{"measurement": "AC50", "setting": "[12]", "result": "14.2 µM (active)"}]}
{"smiles": "O=C(/C=C/c1ccco1)c1ccccc1O", "values": [{"measurement": "IC50", "setting": "[13]", "result": "50 µM (inactive)"}]}
{"smiles": "CCCCNc1nc(C)nc2c1nc(-c1ccccc1)n2CCN(C)C", "values": [{"measurement": "AC50", "setting": "[1]", "result": "15.8 µM (inconclusive)"}]}
{"smiles": "O=C1C=C(O)C(=O)c2ccccc21", "note": "[LAWSONE]", "values": [{"measurement": "AC50", "setting": "[1]", "result": "25.1 µM (inconclusive)"}]}
{"smiles": "COc1ccc(CNC(=O)c2cc3c(C)nc4ccccc4c3o2)c(OC)c1", "values": [{"measurement": "AC50", "setting": "[9]", "result": "3.5 µM (active)"}, {"measurement": "EC50", "setting": "[14]", "result": "> 112 µM (not active)"}, {"measurement": "AC50", "setting": "[10]", "result": "3.22 µM (active)"}, {"measurement": "AC50", "setting": "[11]", "result": "2.47 µM (active)"}, {"measurement": "EC50", "setting": "[15]", "result": "> 112 µM (not active)"}]}
{"smiles": "Cc1ccc(S(=O)(=O)CCC(=O)NCc2ccccc2Cl)cc1", "values": [{"measurement": "IC50", "setting": "[13]", "result": "> 64 µM (inactive)"}]}
{"smiles": "COc1ccc(NC(=O)Nc2ccc3c(c2)C(=O)N([C@H](C)CO)C[C@H](C)[C@H](CN(C)S(=O)(=O)c2ccc(C)cc2)O3)cc1", "values": [{"measurement": "AC50", "setting": "[16]", "result": "3.61 µM (active)"}, {"measurement": "AC50", "setting": "[17]", "result": "11.2 µM (active)"}]}
{"smiles": "O=[N+]([O-])c1ccc(/C=N/c2ccc(Cl)c([N+](=O)[O-])c2)s1", "values": [{"measurement": "AC50", "setting": "[18]", "result": "2.99 µM (active)"}, {"measurement": "IC50", "setting": "[19]", "result": "2.35 µM (active)"}, {"measurement": "IC50", "setting": "[20]", "result": "3.07 µM (active)"}]}
{"smiles": "COc1ccc(C(=O)Cn2nnc(-c3ccccc3F)n2)cc1", "values": [{"measurement": "AC50", "setting": "[21]", "result": "> 100 µM (inactive)"}]}
{"smiles": "O=S(=O)(Nc1nc2ccccc2nc1N1CCN(c2ccccn2)CC1)c1ccc(Cl)cc1", "values": [{"measurement": "AC50", "setting": "[18]", "result": "6.23 µM (active)"}]}
